Laboratory results published in publication PMC2680961, “Homologous desensitization of signalling by the alpha (α) isoform of the human thromboxane A2 receptor: A specific role for nitric oxide signalling” (Biochimica et Biophysica Acta, 2007).
Numbering of substitutions follows the chain as printed.

How the values were obtained:
TPα^S329A = target: T1, TPα^S329A (Homo sapiens, UniProt P21731, S329A); test: Intracellular calcium mobilization, HEK.TPα^S329A cells; assay type: cell-based
T1 construct: expressed in transfected cells
T1 sequence (P21731 1-343 S329A): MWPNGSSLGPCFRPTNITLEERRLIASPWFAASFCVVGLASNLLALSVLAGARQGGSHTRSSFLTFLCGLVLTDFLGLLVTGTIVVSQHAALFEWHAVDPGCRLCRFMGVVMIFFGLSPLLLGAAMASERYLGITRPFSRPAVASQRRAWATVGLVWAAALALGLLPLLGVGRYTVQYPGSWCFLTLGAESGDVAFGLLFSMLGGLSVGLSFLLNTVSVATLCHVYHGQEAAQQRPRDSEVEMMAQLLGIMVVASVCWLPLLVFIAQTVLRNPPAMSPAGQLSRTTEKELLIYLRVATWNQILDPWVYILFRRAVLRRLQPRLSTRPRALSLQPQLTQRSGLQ
Description: (§1) Measurement of intracellular calcium mobilization ([Ca^2+]i) in FURA2/AM preloaded HEK 293 cell lines (2 × 10^6 cells/dish), each transiently co-transfected with pADVA (10 μg), and pCMV:Gαq (25 μg), was carried out as previously described. To investigate the effect of GRK2/βARK1 on TP-mediated [Ca^2+]i mobilization, HEK.TPα or HEK.TPβ cells (2 × 10^6 cells/dish) were co-transfected with pADVA (10 μg), pCMV:Gαq (25 μg) along with pRK5:βARK1^495–689 (25 μg), encoding a dominant negative form of GRK2/βARK1[39]. […] For each measurement of [Ca^2+]i mobilization, aliquots of cells were diluted to 0.825 × 10^6 cells/ml in HBSSHB, 1 mM CaCl2 and FURA2 fluorescence was recorded (2 ml aliquots of cells) at 37^ °C with gentle stirring with a Perkin Elmer-Cetus LS50-B spectrofluorometer at excitation wavelengths of 340 nm and 380 nm and emission wavelength of 510 nm, respectively.
Cells were stimulated with the TP agonist U46619 (1 μM) and changes in [Ca^2+]i mobilization were monitored as a function of time. […]
The vehicle had no effect on U46619-mediated [Ca^2+]i mobilization. Calibration of the signal was performed in each sample by adding 0.2% Triton X-100 to obtain the maximal fluorescence ratio (Rmax) and then 1 mM EGTA to obtain the minimal fluorescence ratio (Rmin). […]

TPα^S331A = target: T2, TPα^S331A (Homo sapiens, UniProt P21731, S331A); test: Intracellular calcium mobilization, HEK.TPα^S331A cells; assay type: cell-based; details: for Δ[Ca2+]i, U46619-induced: HEK.TPα^S331A
T2 construct: expressed in transfected cells
T2 sequence (P21731 1-343 S331A): T1 sequence (P21731 1-343 S329A) with A329S, S331A
Description: as §1, with “GRK2/βARK1[39]. Approximately 48 h post-transfection, cells were harvested by scraping, washed twice in ice-cold PBS and resuspended in HBSSHB (modified Ca^2+/Mg^2+-free Hank's buffered salt solution, containing […], pH 7.67, 0.1% bovine serum albumin (BSA)) buffer at 10^7 cells/ml and incubated in the dark with 5 μM FURA2/AM for 45 min at 37 °C.” for “GRK2/βARK1[39].”
Cells were stimulated with the TP agonist U46619 (1 μM) and changes in [Ca^2+]i mobilization were monitored as a function of time. To assess agonist-mediated homologous desensitization, cells (0.825 × 10^6 cells/ml; 2 ml per assay) were stimulated with 1 μM U46619 (Primary stimulation) or, as a control, with the vehicle for 4 min; thereafter, cells were collected by centrifugation (900×g, 5 min); were washed twice in 2 ml HBSSHB, 1 mM CaCl2; and finally resuspended in 2 ml HBSSHB,1 mM CaCl2 and were left to recover over various time intervals (ranging from 0 to 60 min); thereafter, cells re-stimulated with 1 μM U46619 (Secondary stimulation) and changes in [Ca^2+]i mobilization were monitored as a function of time. […]

[1] = secondary 1 μM U46619 at 15 min

Δ[Ca2+]i, U46619-induced (TPα^S329A; primary 1 μM U46619 4 min): 228 ± 7.7 nM | Δ[Ca2+]i, U46619-induced (TPα^S329A; [1]): 0 nM | Δ[Ca2+]i, U46619-induced (TPα^S331A; primary 1 μM U46619 4 min): 207 ± 9.1 nM | Δ[Ca2+]i, U46619-induced (TPα^S331A; [1]): 80 ± 6.8 nM | secondary U46619 [Ca2+]i response relative to primary response (TPα^S331A; TPα^S331A): 39%
SMILES: CCCCC[C@H](O)/C=C/[C@@H]1[C@@H](C/C=C\CCCC(=O)O)[C@H]2CO[C@@H]1C2 [U46619]
